Results reported in patent US11053248B2, “[1,2,4]triazolo[1,5-a]pyrimidine compounds as PDE2 inhibitors” (Janssen Pharmaceutica NV, priority 2016, dated 2021).

How the values were obtained:
PDE2A = target: T1, PDE2A (Rattus norvegicus, UniProt Q01062); assay: PDE2 occupancy by ex-vivo autoradiography with [3H]B-17a; type: in vivo; conditions: rat
T1 construct: from tissue; host or cells: rat brain striatal sections (ex vivo)
T1 sequence (Q01062 1-928): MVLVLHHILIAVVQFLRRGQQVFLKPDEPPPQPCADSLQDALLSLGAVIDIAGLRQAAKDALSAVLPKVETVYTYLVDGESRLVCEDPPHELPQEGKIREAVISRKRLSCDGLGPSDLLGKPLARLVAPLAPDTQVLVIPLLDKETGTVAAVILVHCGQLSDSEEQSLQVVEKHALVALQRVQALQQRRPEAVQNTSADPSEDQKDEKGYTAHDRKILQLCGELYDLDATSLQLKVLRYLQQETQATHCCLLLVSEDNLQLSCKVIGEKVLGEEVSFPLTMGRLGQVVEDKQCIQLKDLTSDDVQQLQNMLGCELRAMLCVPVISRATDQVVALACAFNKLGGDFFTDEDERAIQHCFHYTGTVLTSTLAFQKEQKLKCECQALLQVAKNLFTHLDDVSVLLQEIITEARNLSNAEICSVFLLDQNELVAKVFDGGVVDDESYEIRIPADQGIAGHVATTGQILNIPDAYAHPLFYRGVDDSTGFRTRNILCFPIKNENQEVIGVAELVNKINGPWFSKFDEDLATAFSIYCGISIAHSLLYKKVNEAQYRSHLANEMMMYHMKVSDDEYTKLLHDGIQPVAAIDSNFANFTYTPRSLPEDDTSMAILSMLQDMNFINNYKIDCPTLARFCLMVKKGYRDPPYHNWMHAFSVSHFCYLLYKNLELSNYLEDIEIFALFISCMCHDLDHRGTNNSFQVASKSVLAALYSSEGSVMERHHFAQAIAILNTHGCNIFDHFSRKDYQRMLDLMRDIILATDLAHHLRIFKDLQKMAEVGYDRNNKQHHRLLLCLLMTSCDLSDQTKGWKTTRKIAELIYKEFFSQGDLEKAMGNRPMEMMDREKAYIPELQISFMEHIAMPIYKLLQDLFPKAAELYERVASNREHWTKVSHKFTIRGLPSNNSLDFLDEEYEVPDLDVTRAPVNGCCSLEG

hPDE10A2 = hPDE10A2 (Homo sapiens, UniProt Q9Y233); assay: biochemical
Chain of hPDE10A2 (Q9Y233 267-1055): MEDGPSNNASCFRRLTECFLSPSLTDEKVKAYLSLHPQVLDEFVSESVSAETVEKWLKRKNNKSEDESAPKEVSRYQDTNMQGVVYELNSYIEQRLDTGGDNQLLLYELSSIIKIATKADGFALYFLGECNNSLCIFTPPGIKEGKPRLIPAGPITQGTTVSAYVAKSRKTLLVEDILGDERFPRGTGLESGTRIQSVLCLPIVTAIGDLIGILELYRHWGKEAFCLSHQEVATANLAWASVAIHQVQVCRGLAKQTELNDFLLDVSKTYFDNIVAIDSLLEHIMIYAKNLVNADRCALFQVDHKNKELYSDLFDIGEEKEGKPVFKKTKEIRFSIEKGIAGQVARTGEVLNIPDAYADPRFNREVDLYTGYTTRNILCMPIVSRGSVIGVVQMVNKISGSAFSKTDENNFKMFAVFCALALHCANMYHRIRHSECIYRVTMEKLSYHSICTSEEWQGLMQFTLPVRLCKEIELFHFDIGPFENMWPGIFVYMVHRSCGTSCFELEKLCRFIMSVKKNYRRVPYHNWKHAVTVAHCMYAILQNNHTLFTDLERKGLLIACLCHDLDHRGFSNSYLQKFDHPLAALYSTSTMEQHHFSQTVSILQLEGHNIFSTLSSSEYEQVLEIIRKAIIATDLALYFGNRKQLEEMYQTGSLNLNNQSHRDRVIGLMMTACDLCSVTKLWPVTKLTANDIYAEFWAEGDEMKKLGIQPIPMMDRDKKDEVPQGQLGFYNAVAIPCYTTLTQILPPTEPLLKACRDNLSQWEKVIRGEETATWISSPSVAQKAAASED

**Q.** With `C[C@@H]1CCN(c2nccc3ccc(Br)cc23)C[C@H]1c1cc(C(F)F)nc2ncnn12` [Compound 1] as the compound, how does the receptor occupancy at 10 mg/kg (PDE2A; po, read-out: PDE2 occupancy at 10 mg/kg, route PO (oral), 10 mg/kg, male Wistar rats, striatum, percentage occupancy) read?
**A.** 94%

**Q.** What about the ED50 (PDE2A; sc, read-out: PDE occupancy ED50, route SC (subcutaneous), male Wistar rats, dose producing 50% occupancy) of the same compound?
**A.** 6.7 mg/kg

**Q.** What about the IC50 (hPDE10A2; 60 nM cAMP substrate, read-out: hPDE10A2 pIC50 (converted)) of the same compound?
**A.** 550 nM

**Q.** And the Emax (hPDE10A2; read-out: hPDE10A2 Emax)?
**A.** 98%

**Q.** And the melting point?
**A.** 129.91 °C
